In paper PMC4513902, “Evaluation of a new radiolabeled bombesin derivative with ^99mTc as potential targeted tumor imaging agent” (Journal of Radioanalytical and Nuclear Chemistry, 2013):
Where two headings read alike, the source gives them in different places.

How the values were obtained:
[1] = system: human GRP receptor cell line PC-3; conditions: after 4 h in PC-3; previous compound; cited from earlier work
Source text: Compare with our pervious compound [^99mTc-tricine-HYNIC^0-D-Tyr^6-D-Trp^8]

[2] = Biodistribution in nude mice bearing PC-3 tumors; format: in vivo, mouse
Experimental: Animal experiments were performed in compliance with the regulations of our institution and with generally accepted guidelines governing such a work. A suspension of human PC-3 cells (1 × 10^7) in PBS buffer was subcutaneously injected in the right flank of each nude mouse. Seven to 10 days after inoculation, the tumors were inducted and then an activity of 20 MBq (0.35 nmol) of ^99mTc-Bombesin was injected via the femoral vein. In order to determine the non-specific uptake of the radiopeptides, in receptor-positive organs, a group of 3 animals were injected with 100 μg cold peptide in 50 μl saline as a co-injection with the radiopeptides (blocked animals). After 1, 4 and 24 h, the mice in groups of 3 animals were scarified, organs of interest were collected, weighed and radioactivity was measured in a gamma counter. The percentage of the injected dose per gram (% ID/g) was calculated for each tissue.

PC-3 tumor cell = assay: Efflux of radiopeptide from PC-3 tumor cells; format: cell-based, human; conditions: after 4 h
Human serum stability = format: in vitro ADME
Experimental: To 1 mL of freshly prepared human serum, we added 100 μl (14.8–29.6 MBq) radiolabeled BB derivative and mixture was incubated at 37 °C. 100 μl aliquots was removed and treated with 200 μl of ethanol at different times up to 24 h. Sample was centrifuged at 3,000 rpm for 15 min to precipitate serum proteins. The supernatant was filtered through a 0.20 μm pore filter and analyzed with RP-HPLC Gradient I to determine radiochemical stability.

[3] = Radiochemical stability post labeling at room temperature; format: physicochemical
[4] = system: human GRP receptor cell line PC-3; assay: Internalization assay in PC-3 cells; format: cell-based; conditions: 1 million cells per well, about 150 kBq (2.5 pmol total peptide) per well, acid resistant fraction, gamma counter
Experimental: The human androgen-independent prostate carcinoma cell line PC-3 was obtained from National Cell Bank of Iran (NCBI) affiliated to Pasteur Institute of Iran. The cells were grown in DMEM supplemented with 10 % (v/v) fetal bovine serum (FBS), 1 % L-glutamine (2 mM),1 % penicillin(100 IU/ml)/streptomycin(100 μg/ml) and 1 % amphotericin B(0.25 μg/ml). The cells were incubated at 37 °C in a humidified atmosphere containing 5 % CO2 and were subcultured weekly detaching with trypsin/EDTA solution (0.25 %).
Medium was removed from the 6-well plates contain PC-3 cells with density of 1 million cells per well and cells were washed once with 2 ml of internalization medium (DMEM with 1 % FBS). Furthermore, 1.5 ml internalization medium was added to each well, and the plates were incubated at 37 °C for about 1 h. Afterwards, about 150 kBq (2.5 pmol total peptide mass per well) was added to the medium, and the cells were incubated at 37 °C for various time periods. To determine nonspecific internalization, we incubated cells with the radioligand in the presence of 150 μl, 1 μmol/l Bombesin. The cellular uptake was stopped at appropriate time periods (30 min, 1 h, 2 h and 4 h) by removing medium from the cells and washing twice with 1 ml of ice-cold phosphate-buffered saline (PBS). […] The culture medium, the receptor-bound and internalized fractions were measured radiometrically in a gamma counter.

[5] = 1 h after injection, nude mice with PC-3 tumor, 20 MBq (0.35 nmol) via femoral vein, n = 3
[6] = 4 h, unblocked vs. blocked mice, P < 0.05

Row | Substance | internalization into PC-3 cells [1] [%] | uptake in PC-3 tumor [2, 5] [% ID/g] | uptake in pancreas [2, 5] [% ID/g] | Reduction of uptake in pancreas by blocking with cold peptide [2, 6] [%] | Reduction of uptake in tumor by blocking with cold peptide [2, 6] [%] | efflux rate of radiopeptide from PC-3 tumor cell (PC-3 tumor cell) | radiochemical purity remaining in human serum (Human serum stability; after 24 h in freshly prepared human serum, 37 °C, 100 μl (14.8–29.6 MBq) in 1 mL serum, ethanol precipitation, RP-HPLC Gradient I) [%] | time of good stability in human serum (Human serum stability; human serum at 37 °C, no significant impurities detected by HPLC) | time stable post labeling (radiochemical stability) [3] [h] | internalization into PC-3 cells ([4]; 0.5 h incubation at 37 °C, mean ± SD) [%] | internalization into PC-3 cells ([4]; 1 h incubation at 37 °C, three independent experiments with triplicates) [%]
1 | [^99mTc-tricine-HYNIC^0-D-Tyr^6-D-Trp^8] BB (6–14) | 10.7 ± 1.2 | – | – | – | – | – | – | – | – | – | –
2 | [^99mTc/tricine/HYNIC^0, D-Tyr^5-D-Tyr^6-D-Phe^13] Bombesin (5–14) NH2 [new bombesin derivative labeled with ^99mTc via HYNIC and tricine as a coligand] | – | 2.11 ± 0.18 | 1.78 ± 0.09 | 76 | 82 | acceptable intercellular trapping | > 90 | at least 24 h | ≥ 24 | 2.3 ± 0.9 | 5.3 ± 1.1
